22 compounds from patent US12091425B2 (AMGEN INC., priority 2016, dated 2024) can be followed below.

The target of test [1] is T1, Mcl-1/Bim interaction, recombinant human Mcl-1 (171-327) (Homo sapiens, UniProt Q07820).
T1 construct: made in house
Put plainly: Cell free Mcl-1: Bim Affinity Assay (Mcl-1 HTRF). The class given is binding. In outline:
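Biotin-Bim(51-76) peptide, TR-FRET readout, overnight incubation; IC50 from duplicate competition curves, 4-parameter fit.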
On the technique in general: In TR-FRET formats the signal depends on donor and acceptor labels being close together.

Test [2] relates to OPM-2 human multiple myeloma cell line. The test can be described thus: Cell Viability Assay (OPM-2 10 FBS). The class given is cell-based. The note with it: OPM-2 cells, CellTiter-Glo. Here is the method:
Cell Viability Assay (OPM-2 10 FBS)
Cells were seeded into 384-well plates at 3000 cells/well density in complete growth medium containing 10% FBS, and incubated for 16 h with serially diluted test compounds in a 37° C. incubator with 5% CO2. Cell viability was tested using CellTiter-Glo® assay (Promega, Madison, WI) according to the manufacturer recommendations. Luminescence was determined using an EnVision® Multilabel plate reader 25 min after the addition of detection reagent. IC50 values were then calculated with Xlfit using a logistical 4-parameter fit model in GraphPad Prism (GraphPad Software, San Diego, CA) or in Genedata Screener® (Genedata, Basel, Switzerland).

The mark [3] stands for this setting: TR-FRET, 0.1 nM Mcl-1 (171-327), 0.05 nM biotin-Bim (51-76).
Setting [4] is: Homo sapiens, OPM-2, 16 h, 16 h.
[5] abbreviates: cell free Mcl-1:Bim TR-FRET, recombinant human Mcl-1 (171-327).
The mark [6] stands for this setting: Homo sapiens, OPM-2, 16 h, 16 h incubation.

T1 sequence (Q07820 171-327): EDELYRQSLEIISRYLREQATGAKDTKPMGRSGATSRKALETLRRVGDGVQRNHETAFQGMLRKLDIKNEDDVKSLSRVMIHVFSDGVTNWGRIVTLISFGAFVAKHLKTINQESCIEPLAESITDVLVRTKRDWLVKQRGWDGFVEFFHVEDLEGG

Regarding `O=C1NS(=O)(=O)[C@H]2CCCC[C@@H]2CCC[C@H](O)[C@@H]2CC[C@H]2CN2C[C@@]3(CCCc4cc(Cl)ccc43)COc3ccc1cc32` (single isomer, unassigned) [Example 334], the IC50 (in general, the concentration needed to halve the response being measured) in test [1] (setting [3]) came to 6.92 nM; in test [2] (16 h), 2660 nM.
For the compound `CC[C@@H]1C[C@H](C)/C=C/[C@H](O)[C@@H]2CC[C@H]2CN2C[C@@]3(CCCc4cc(Cl)ccc43)COc3ccc(cc32)C(=O)NS1(=O)=O` (single isomer, unassigned) [Example 1024], the IC50 in test [1] (setting [3]) was determined as 0.296 nM; in test [2] (16 h incubation) it was 414 nM.
For `CCN1[C@H](C)C/C=C\[C@H](O)[C@@H]2CC[C@H]2CN2C[C@@]3(CCCc4cc(Cl)ccc43)COc3ccc(cc32)C(=O)NS1(=O)=O` (single isomer, unassigned) [Example 60], the IC50 in test [1] (setting [3]) came out at 4.08 nM; in test [2] (16 h), 2690 nM.
Consider `COCCCN1[C@@H](C)C/C=C/[C@H](O)[C@@H]2CC[C@H]2CN2C[C@@]3(CCCc4cc(Cl)ccc43)COc3ccc(cc32)C(=O)NS1(=O)=O` (single isomer, unassigned) [Example 72], for which the IC50 amounted to 0.324 nM in test [1] (setting [3]) and 445 nM in test [2] (setting [4]).
As for `COC(=O)C[C@@H]1CC/C=C/[C@H](OC)[C@@H]2CC[C@H]2CN2C[C@@]3(CCCc4cc(Cl)ccc43)COc3ccc(cc32)C(=O)NS1(=O)=O` [Example 624], the figures for the IC50 in test [1] (setting [5]) and in test [2] (16 h) were 0.338 nM and 455 nM, respectively.
In the case of `C[C@@H]1CC/C=C/[C@H](OCc2nc[nH]n2)[C@@H]2CC[C@H]2CN2C[C@@]3(CCCc4cc(Cl)ccc43)COc3ccc(cc32)C(=O)NS1(=O)=O` [Example 958, (1S,3′R,6′R,7′S,8′E,12′R)-6-chloro-12′-methyl-7′-(4H-1,2,4-triazol-3-ylmethoxy)-3,4-dihydro-2H,15′H-spiro[naphthalene-1,22′-[20]oxa[13]thia[1,14]diazatetracyclo[14.7.2.0^3,6.0^19,24]pentacosa [8,16,18,24]tetraen]-15′-one 13′,13′-dioxide], the IC50 in test [1] (setting [3]) is 0.253 nM; in test [2] (setting [6]), 3890 nM.
As for `O=C1NS(=O)(=O)[C@@H]2CCC[C@@H](/C=C/[C@H](O)[C@@H]3CC[C@H]3CN3C[C@@]4(CCCc5cc(Cl)ccc54)COc4ccc1cc43)C2` (single isomer, unassigned) [Example 105], the IC50 in test [1] (setting [3]) stood at 0.589 nM; in test [2] (16 h), 330 nM.
In the case of `C[C@@H]1[C@@H](C)C/C=C/[C@H](OCC(=O)N(C)CCN(C)C)[C@@H]2CC[C@H]2CN2C[C@@]3(CCCc4cc(Cl)ccc43)COc3ccc(cc32)C(=O)NS1(=O)=O` [Example 300, 2-(((1S,3′R,6′R,7′S,8′E,11′S,12′R)-6-chloro-11′,12′-dimethyl-13′,13′-dioxido-15′-oxo-3,4-dihydro-2H-spiro[naphthalene-1,22′-[20]oxa[13]thia[1,14]diazatetracyclo[14.7.2.0^3,6.0^19,24]pentacosa [8,16,18,24]tetraen]-7′-yl)oxy)-N-(2-(dimethylamino)ethyl)-N-methylacetamide], the IC50 in test [1] (setting [3]) came out at 0.24 nM; in test [2] (setting [4]), 817 nM.
`CO[C@@H]1C[C@H]2C/C=C/[C@H](OC)[C@@H]3CC[C@H]3CN3C[C@@]4(CCCc5cc(Cl)ccc54)COc4ccc(cc43)C(=O)NS(=O)(=O)[C@@H]2C1` (single isomer, unassigned) [Example 337]: the IC50 was 0.705 nM in test [1] (setting [3]) and 383 nM in test [2] (16 h).
Compound `CO[C@H]1C/C=C/[C@H](C)[C@@H](C)S(=O)(=O)NC(=O)c2ccc3c(c2)N(C[C@@H]2CC[C@H]21)C[C@@]1(CCCc2cc(Cl)ccc21)CO3` [Example 17, (1S,3′R,6′R,7′S,9′E,11′S,12′R)-6-chloro-7′-methoxy-11′,12′-dimethyl-3,4-dihydro-2H,15′H-spiro[naphthalene-1,22′-[20]oxa[13]thia[1,14]diazatetracyclo[14.7.2.0^3,6.0^19,24]pentacosa[9,16,18,24]tetraen]-15′-one 13′,13′-dioxide] showed an IC50 in test [2] (Homo sapiens, 16 h) of 7920 nM.
Turning to `COCC(O)CC1CCC=CC(OC)C2CCC2CN2CC3(CCCc4cc(Cl)ccc43)COc3ccc(cc32)C(=O)NS1(=O)=O` (single isomer, unassigned) [Example 658], the IC50 in test [1] (setting [5]) came to 0.285 nM; in test [2] (setting [4]), 259 nM.
For `CC[N+](CC)(CC)CCO[C@H]1/C=C/C[C@H](C)[C@@H](C)S(=O)(=O)NC(=O)c2ccc3c(c2)N(C[C@@H]2CC[C@H]21)C[C@@]1(CCCc2cc(Cl)ccc21)CO3` [Example 533, 2-(((1S,3′R,6′R,7′S,8′E,11′S,12′R)-6-chloro-11′,12′-dimethyl-13′,13′-dioxido-15′-oxo-3,4-dihydro-2H-spiro[naphthalene-1,22′-[20]oxa[13]thia[1,14]diazatetracyclo[14.7.2.0^3,6.0^19,24]pentacosa [8,16,18,24]tetraen]-7′-yl)oxy)-N,N,N-triethylethanaminium 2,2,2-trifluoroacetate] the same measures were 0.583 nM and 14200 nM.
Regarding `C[C@H]1C/C=C/[C@H](OCCN2CCOCC2)[C@@H]2CC[C@H]2CN2C[C@@]3(CCCc4cc(Cl)ccc43)COc3ccc(cc32)C(=O)NS(=O)(=O)N1` [Example 67, (1S,3′R,6′R,7′S,8′E,11′S)-6-chloro-11′-methyl-7′-(2-(4-morpholinyl)ethoxy)-3,4-dihydro-2H,15′H-spiro[naphthalene-1,22′-[20]oxa[13]thia[1,12,14]triazatetracyclo[14.7.2.0^3,6.0^19,24]pentacosa[8,16,18,24]tetraen]-15′-one 13′,13′-dioxide], the IC50 came to 1.51 nM in test [1] (setting [3]) and 450 nM in test [2] (setting [4]).
Take `O=C1NS(=O)(=O)[C@@H]2CCC[C@@H](CC[C@H](O)[C@@H]3CC[C@H]3CN3C[C@@]4(CCCc5cc(Cl)ccc54)COc4ccc1cc43)C2` (single isomer, unassigned) [Example 107]: the results for the IC50 in test [1] (setting [3]) and in test [2] (16 h) were 0.597 nM and 17300 nM, respectively.
As to `C[C@@H]1[C@@H](C)/C=C/C[C@H](OCCN2CCOCC2)[C@@H]2CC[C@H]2CN2C[C@@]3(CCCc4cc(Cl)ccc43)COc3ccc(cc32)C(=O)NS1(=O)=O` [Example 16, (1S,3′R,6′R,7′S,9′E,11′S,12′R)-6-chloro-11′,12′-dimethyl-7′-(2-(4-morpholinyl)ethoxy)-3,4-dihydro-2H,15′H-spiro[naphthalene-1,22′-[20]oxa[13]thia[1,14]diazatetracyclo[14.7.2.0^3,6.0^19,24]pentacosa [9,16,18,24]tetraen]-15′-one 13′,13′-dioxide], the IC50 in test [1] (setting [3]) stood at 2.21 nM; in test [2] (Homo sapiens, 16 h), 3580 nM.
Take `O=C1NS(=O)(=O)C2CC2CC=CC(O)C2CCC2CN2CC3(CCCc4cc(Cl)ccc43)COc3ccc1cc32` (single isomer, unassigned) [Example 793]: the IC50 stood at 0.44 nM in test [1] (setting [5]) and 536 nM in test [2] (16 h).
For `COCCO[C@H]1/C=C/C[C@H](C)[C@H](c2ccccc2)S(=O)(=O)NC(=O)c2ccc3c(c2)N(C[C@@H]2CC[C@H]21)C[C@@]1(CCCc2cc(Cl)ccc21)CO3` (single isomer, unassigned) [Example 670] the same measures were 2.48 nM and 1000 nM.
In turn, `CC[C@@H]1CCCCC(=O)[C@@H]2CC[C@H]2CN2C[C@@]3(CCCc4cc(Cl)ccc43)COc3ccc(cc32)C(=O)NS1(=O)=O` [Example 886, (1S,3′R,6′R,12′R)-6-chloro-12′-ethyl-3,4-dihydro-2H,7′H,15′H-spiro[naphthalene-1,22′-[20]oxa[13]thia[1,14]diazatetracyclo[14.7.2.0^3,6.0^19,24]pentacosa [16,18,24]triene]-7′,15′-dione 13′,13′-dioxide] registered an IC50 in test [2] (setting [4]) of 12300 nM.
Regarding `CC[C@@H]1CC/C=C/[C@H](OCC(=O)N2CCOCC2)[C@@H]2CC[C@H]2CN2C[C@@]3(CCCc4cc(Cl)ccc43)COc3ccc(cc32)C(=O)NS1(=O)=O` [Example 979, (1S,3′R,6′R,7′S,8′E,12′R)-6-chloro-12′-ethyl-7′-(2-(4-morpholinyl)-2-oxoethoxy)-3,4-dihydro-2H,15′H-spiro[naphthalene-1,22′-[20]oxa[13]thia[1,14]diazatetracyclo[14.7.2.0^3,6.0^19,24]pentacosa [8,16,18,24]tetraen]-15′-one 13′,13′-dioxide], the midpoint of inhibition in test [2] (setting [6]), the IC50, lay at 16900 nM.
`CC[C@@H]1CC/C=C/[C@H](OCCC(=O)OC)[C@@H]2CC[C@H]2CN2C[C@@]3(CCCc4cc(Cl)ccc43)COc3ccc(cc32)C(=O)NS1(=O)=O` [Example 1007]: the IC50 in test [2] (setting [6]) turned out to be 74 nM.
On to `O=C1NS(=O)(=O)CCCC[C@@H](O)[C@H](O)[C@@H]2CC[C@H]2CN2C[C@@]3(CCCc4cc(Cl)ccc43)COc3ccc1cc32` (single isomer, unassigned) [Example 853, (1S,3′R,6′R,7′R,8′R)-6-chloro-7′,8′-dihydroxy-3,4-dihydro-2H,15′H-spiro[naphthalene-1,22′-[20]oxa[13]thia[1,14]diazatetracyclo[14.7.2.0^3,6.0^19,24]pentacosa [16,18,24]trien]-15′-one 13′,13′-dioxide or (1S,3′R,6′R,7′S,8′S)-6-chloro-7′,8′-dihydroxy-3,4-dihydro-2H,15′H-spiro[naphthalene-1,22′-[20]oxa[13]thia[1,14]diazatetracyclo[14.7.2.0^3,6.0^19,24]pentacosa [16,18,24]trien]-15′-one 13′,13′-dioxide], for which, in test [1] (setting [5]), the IC50 was 11.7 nM.
Take `CO[C@H]1/C=C/CCNS(=O)(=O)NC(=O)c2ccc3c(c2)N(C[C@@H]2CC[C@H]21)C[C@@]1(CCCc2cc(Cl)ccc21)CO3` (single isomer, unassigned) [Example 46]: in test [1] (setting [3]), the IC50 is 0.367 nM.
